In US20240409609A1, “REVERSIBLE LYSINE COVALENT MODIFIERS OF EGFR AND USES THEREOF” (Terremoto Biosciences, Inc., priority 2021, published 2024):

Key:
EGFR WT = EGFR WT (Homo sapiens (Human), UniProt P00533); experiment: EGFR biochemical assay (AssayQuant chelation-enhanced fluorescence); details: 30 min preincubation, reaction time 360 min
EGFR WT in Ba/F3 cells = EGFR WT in Ba/F3 cells (Homo sapiens (Human), UniProt P00533); experiment: Ba/F3 pEGFR assay (AlphaLISA p-EGFR Tyr1068); assay type: cell-based; details: 2 hrs treatment, media supplemented with EGF
Procedure: Cellular activity was determined using the Ba/F3 system for studying oncogenic mutant kinases (Warmuth 2007). […] Transduced cells were maintained in RPMI 1640 with 10% FBS. EGFR WT transduced cells were grown in media supplemented with EGF. To assay cellular activity of inhibitors, cells were treated with inhibitor from 1000X DMSO stock dilutions and incubated for 2 hrs at 37° C. 5% CO2. Subsequently, p-EGFR (Tyr1068) was quantified using a commercial sandwich immunoassay (PerkinElmer AlphaLISA SureFire assay; ALSU-PEGFR) according to the manufacturer's instructions. […] Curr Opin Oncol 19, 55-60 (2007), which is incorporated herein in its entirety.

EGFR WT, sequence (P00533 668-1210): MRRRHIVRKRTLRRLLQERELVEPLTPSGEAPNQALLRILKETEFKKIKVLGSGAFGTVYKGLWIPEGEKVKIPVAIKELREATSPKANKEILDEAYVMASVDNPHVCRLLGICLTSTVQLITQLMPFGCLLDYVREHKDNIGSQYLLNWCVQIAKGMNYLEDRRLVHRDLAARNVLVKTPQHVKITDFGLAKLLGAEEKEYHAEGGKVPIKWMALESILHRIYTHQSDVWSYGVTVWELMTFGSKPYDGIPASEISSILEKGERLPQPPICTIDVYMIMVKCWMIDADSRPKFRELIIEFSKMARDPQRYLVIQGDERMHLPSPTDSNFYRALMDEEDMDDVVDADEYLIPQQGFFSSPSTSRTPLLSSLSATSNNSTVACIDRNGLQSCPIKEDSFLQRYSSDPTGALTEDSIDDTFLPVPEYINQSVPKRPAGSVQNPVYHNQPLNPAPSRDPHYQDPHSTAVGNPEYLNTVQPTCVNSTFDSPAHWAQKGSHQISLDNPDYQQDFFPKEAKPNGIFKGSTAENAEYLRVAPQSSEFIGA
EGFR WT in Ba/F3 cells, sequence (P00533 25-1210): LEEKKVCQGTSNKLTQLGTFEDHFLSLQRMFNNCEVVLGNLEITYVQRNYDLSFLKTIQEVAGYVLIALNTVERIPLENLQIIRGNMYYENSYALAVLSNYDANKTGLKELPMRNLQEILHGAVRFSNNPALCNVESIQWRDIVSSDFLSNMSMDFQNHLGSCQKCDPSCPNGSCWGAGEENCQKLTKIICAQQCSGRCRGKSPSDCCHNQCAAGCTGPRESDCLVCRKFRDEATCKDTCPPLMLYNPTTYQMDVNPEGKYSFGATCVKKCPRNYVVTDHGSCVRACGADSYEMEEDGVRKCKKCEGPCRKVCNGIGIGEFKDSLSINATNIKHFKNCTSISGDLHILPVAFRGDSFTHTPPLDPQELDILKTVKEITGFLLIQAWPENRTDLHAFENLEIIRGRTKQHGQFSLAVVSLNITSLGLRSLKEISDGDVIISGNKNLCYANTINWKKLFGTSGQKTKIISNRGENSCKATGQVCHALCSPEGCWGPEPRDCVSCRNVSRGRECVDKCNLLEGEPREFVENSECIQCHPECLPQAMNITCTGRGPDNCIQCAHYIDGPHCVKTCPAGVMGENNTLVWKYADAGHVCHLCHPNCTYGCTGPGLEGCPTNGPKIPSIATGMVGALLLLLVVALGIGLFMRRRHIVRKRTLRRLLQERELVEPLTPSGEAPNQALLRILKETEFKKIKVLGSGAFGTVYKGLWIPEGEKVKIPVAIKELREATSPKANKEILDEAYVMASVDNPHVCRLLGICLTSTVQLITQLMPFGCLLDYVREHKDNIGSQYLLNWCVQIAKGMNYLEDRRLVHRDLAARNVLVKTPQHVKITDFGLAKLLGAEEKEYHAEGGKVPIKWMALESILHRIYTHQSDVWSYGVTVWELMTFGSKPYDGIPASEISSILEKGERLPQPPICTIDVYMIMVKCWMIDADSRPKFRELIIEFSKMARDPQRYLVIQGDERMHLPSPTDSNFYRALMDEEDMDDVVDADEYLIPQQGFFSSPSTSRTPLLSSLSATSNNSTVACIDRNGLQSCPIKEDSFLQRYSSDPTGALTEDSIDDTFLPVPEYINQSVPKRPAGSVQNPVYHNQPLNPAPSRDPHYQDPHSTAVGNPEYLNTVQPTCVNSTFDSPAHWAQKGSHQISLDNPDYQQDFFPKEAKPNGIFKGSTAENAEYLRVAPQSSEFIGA

| SMILES | IC50 (EGFR WT) [µM] | IC50 (EGFR WT in Ba/F3 cells) [µM] |
| --- | --- | --- |
| COC(=O)Nc1cccc(C#Cc2cc(C(=O)/N=c3\[nH]c4ccc(CN5CCN(C)CC5)cc4n3CC(C)(C)O)ccn2)c1C=O [Compound 84] | 0.061 | 0.879 |
| CN1CCN(c2ccc3[nH]/c(=N\C(=O)c4ccnc(Oc5cccc(O)c5C=O)c4)n(CC(C)(C)O)c3c2)CC1 [Compound 56] | 0.278 | 0.763 |
| CN(C)C/C=C/C(=O)N1CCCC[C@@H](n2c(NC(=O)c3ccnc(-n4cc(-c5cccc(O)c5C=O)cn4)c3)nc3cccc(Cl)c32)C1 [Compound 125] | 0.0294 | 4.9 |
| CN1CCN(Cc2ccc3[nH]/c(=N\C(=O)c4ccnc(OCc5cccc(O)c5C=O)c4)n(CC(C)(C)O)c3c2)CC1 [Compound 112] | > 1 | 9.87 |
| COc1cc(N(C)CCN(C)C)c(NC(C)=O)cc1Nc1nccc(-c2cn(Cc3ccc(C=O)c(O)c3)c3ccccc23)n1 [Compound 29] | > 1 | > 10 |
| CN1CCN(Cc2ccc3[nH]/c(=N\C(=O)c4cc(Cl)nc(Cc5cccc(O)c5C=O)c4)n(CC(C)(C)O)c3c2)CC1 [Compound 86] | 0.0238 | > 10 |
| CC(C)c1ccc(N2CC(CS(C)(=O)=O)C2)c2cnc(Nc3ccnc(COc4cccc(O)c4C=O)n3)cc12 [Compound 42] | 0.181 | > 10 |
| CN1CCN(Cc2ccc3[nH]/c(=N\C(=O)c4ccnc(Oc5ccc(F)c(O)c5C=O)c4)n(CC(C)(C)O)c3c2)CC1 [Compound 77] | 0.0237 | > 8.08 |
| CC(C)c1ccc(N2CC(CS(C)(=O)=O)C2)c2cnc(Nc3ccnc(N(C)Cc4cccc(C=O)c4O)n3)cc12 [Compound 49] | > 1 | 2.29 |
| COc1cc(N2CCC(N3CCN(C)CC3)CC2)ccc1Nc1ncc(-c2cc(F)c(O)c(C=O)c2)c(Nc2ccccc2)n1 [Compound 9] | 0.00489 | 0.0425 |
| CC(C)c1ccc(N2CC(CS(C)(=O)=O)C2)c2cnc(Nc3ccnc(N(C)CCc4cccc(O)c4C=O)n3)cc12 [Compound 45] | > 1 | > 10 |
| CC(=O)Nc1cccc(C#Cc2cc(C(=O)/N=c3\[nH]c4ccc(CN5CCN(C)CC5)cc4n3CC(C)(C)O)ccn2)c1C=O [Compound 90] | 0.0854 | 0.95 |
| CC(C)(O)Cn1/c(=N/C(=O)c2ccnc(COc3cccc(O)c3C=O)c2)[nH]c2ccccc21 [Compound 133] | 0.316 | > 10 |
| CN1CCN(Cc2ccc3[nH]/c(=N\C(=O)c4ccnc(C#Cc5cc(F)cc(O)c5C=O)c4)n(CC(C)(C)O)c3c2)CC1 [Compound 89] | 0.0491 | > 5.82 |
| CN1CCN(Cc2ccc3[nH]/c(=N\C(=O)c4ccnc(C#Cc5cccc(O)c5C=O)c4)n(CC(C)(C)O)c3c2)CC1 [Compound 62] | 0.00705 | 3.36 |
| CN1CCN(Cc2ccc3[nH]/c(=N\C(=O)c4ccnc(N5CC(Oc6cccc(O)c6C=O)C5)c4)n(CC(C)(C)O)c3c2)CC1 [Compound 104] | 0.344 | > 10 |
| CN(C)C/C=C/C(=O)N1CCCC[C@@H](n2c(NC(=O)c3ccnc(Oc4cccc(O)c4C=O)c3)nc3cccc(Cl)c32)C1 [Compound 126] | 0.013 | 2.03 |

| SMILES | IC50 (EGFR WT) [µM] | IC50 (EGFR WT in Ba/F3 cells) [µM] |
| --- | --- | --- |
| COc1cc(N2CCC(N3CCN(C)CC3)CC2)ccc1Nc1ncc(Cl)c(Nc2ccc(O)c(C=O)c2)n1 [Compound 35] | 0.292 | > 10 |
| COc1cc(N2CCC(N3CCN(C)CC3)CC2)ccc1Nc1ncc(-c2cccc(C=O)c2)c(Nc2ccccc2)n1 [Compound 14] | 0.0634 | > 10 |
| COc1cc(N(C)CCN(C)C)c(NC(C)=O)cc1Nc1nccc(-c2cn(Cc3cccc(O)c3C=O)c3ccccc23)n1 [Compound 28] | > 1 | > 10 |
| COc1cc(N2CCC(N3CCN(C)CC3)CC2)ccc1Nc1ncc(-c2cccc(C=O)c2O)c(Nc2ccccc2)n1 [Compound 5] | 0.398 | > 10 |
| CN1CCN(C(=O)c2ccc3[nH]/c(=N\C(=O)c4ccnc(Oc5cccc(O)c5C=O)c4)n(CC(C)(C)O)c3c2)CC1 [Compound 71] | 0.0104 | 4.95 |
| COc1cc(N2CCC(N3CCN(C)CC3)CC2)ccc1Nc1ncc(-c2ccc(NC(C)=O)c(C=O)c2)c(Nc2ccccc2)n1 [Compound 20] | > 1 | > 10 |
| Cc1cc(C(=O)/N=c2\[nH]c3ccc(CN4CCN(C)CC4)cc3n2CC(C)(C)O)cc(-n2cc(-c3cccc(O)c3C=O)cn2)n1 [Compound 102] | 0.348 | > 10 |
| CN1CCN(Cc2ccc3[nH]/c(=N\C(=O)c4cc(C=O)cc(Oc5cccc(O)c5C=O)c4)n(CC(C)(C)O)c3c2)CC1 [Compound 58] | 0.0103 | > 10 |
| CN1CCN(Cc2ccc3[nH]/c(=N\C(=O)c4ccnc(C#Cc5cccc(N)c5C=O)c4)n(CC(C)(C)O)c3c2)CC1 [Compound 99] | 0.129 | 1.29 |
| CN1CCN(Cc2ccc3[nH]/c(=N\C(=O)c4ccc(Oc5cccc(O)c5C=O)cc4)n(CC(C)(C)O)c3c2)CC1 [Compound 105] | 0.28 | > 10 |
| CN1CCN(Cc2ccc3[nH]/c(=N\C(=O)c4cc(F)cc(Oc5cccc(O)c5C=O)c4)n(CC(C)(C)O)c3c2)CC1 [Compound 53] | 0.00597 | > 8.18 |
| CN1CCN(Cc2ccc3[nH]/c(=N\C(=O)c4ccnc(-n5ccc(-c6cccc(O)c6C=O)n5)c4)n(CC(C)(C)O)c3c2)CC1 [Compound 83] | 0.131 | > 10 |
| CN1CCN(Cc2ccc3[nH]/c(=N\C(=O)c4cccc(Oc5cccc(O)c5C=O)n4)n(CC(C)(C)O)c3c2)CC1 [Compound 93] | 0.49 | > 10 |
| CN1CCN(Cc2ccc3[nH]/c(=N\C(=O)c4ccnc(Oc5cc(F)cc(O)c5C=O)c4)n(CC(C)(C)O)c3c2)CC1 [Compound 66] | 0.0186 | 2.95 |
| Cc1ccc(C(=O)/N=c2\[nH]c3ccc(CN4CCN(C)CC4)cc3n2CC(C)(C)O)cc1Oc1cccc(O)c1C=O [Compound 59] | 0.00932 | 1.13 |
| COc1cc(N(C)CCN(C)C)ccc1Nc1ncc(-c2ccc(O)c(C=O)c2)c(-c2cn(C)c3ccccc23)n1 [Compound 8] | > 1 | > 10 |
| CNc1nc(Nc2ccc(N3CCC(N4CCN(C)CC4)CC3)cc2OC)ncc1-c1ccc(O)c(C=O)c1 [Compound 15] | 0.0191 | 9.65 |

The next lines start with the values.

| IC50 (EGFR WT) [µM] | IC50 (EGFR WT in Ba/F3 cells) [µM] | SMILES |
| --- | --- | --- |
| 0.444 | > 10 | CN1CCN(Cc2ccc3[nH]/c(=N\C(=O)c4ccnc(-c5ccn(-c6cccc(O)c6C=O)n5)c4)n(CC(C)(C)O)c3c2)CC1 [Compound 94] |
| 0.0582 | > 10 | CN1CCN(Cc2ccc3[nH]/c(=N\C(=O)c4ccnc(C#Cc5cccc(NS(C)(=O)=O)c5C=O)c4)n(CC(C)(C)O)c3c2)CC1 [Compound 69] |
| 0.00855 | 4.09 | CC(C)(O)Cn1/c(=N/C(=O)c2ccnc(Oc3cccc(O)c3C=O)c2)[nH]c2ccc(CN3CC(C(C)(C)O)C3)cc21 [Compound 63, (E)-2-(2-formyl-3-hydroxyphenoxy)-N-(1-(2-hydroxy-2-methylpropyl)-6-((3-(2-hydroxypropan-2-yl)azetidin-1-yl)methyl)-1,3-dihydro-2H-benzo[d]imidazol-2-ylidene)isonicotinamide] |
| 0.0382 | > 10 | CC(C)(O)Cn1/c(=N/C(=O)c2ccnc(C#Cc3cccc(O)c3C=O)c2)[nH]c2ccccc21 [Compound 127] |
| 0.0743 | > 10 | CN1CCN(Cc2ccc3[nH]/c(=N\C(=O)c4ccnc(C#Cc5cncc(O)c5C=O)c4)n(CC(C)(C)O)c3c2)CC1 [Compound 100] |
| 0.00501 | 1.49 | CN1CCN(Cc2ccc3[nH]/c(=N\C(=O)c4ccc(F)c(Oc5cccc(O)c5C=O)c4)n(CC(C)(C)O)c3c2)CC1 [Compound 110] |
| 0.011 | 0.0708 | COc1cc(N2CCC(N3CCN(C)CC3)CC2)ccc1Nc1ncc(-c2ccc(O)c(C=O)c2F)c(Nc2ccccc2)n1 [Compound 11] |
| 0.00896 | 1.42 | CN1CCN(Cc2ccc3[nH]/c(=N\C(=O)c4ccnc(Oc5cccc(O)c5C=O)c4)n(CC(C)(C)O)c3c2)CC1 [Compound 64] |
| 0.00871 | 2.98 | CN1CCN(Cc2ccc3[nH]/c(=N\C(=O)c4cc(Oc5cccc(O)c5C=O)c5sccc5c4)n(CC(C)(C)O)c3c2)CC1 [Compound 107] |
| 0.0078 | > 10 | CN1CCN(Cc2ccc3[nH]/c(=N\C(=O)c4ccnc(C#Cc5ccc(F)c(O)c5C=O)c4)n(CC(C)(C)O)c3c2)CC1 [Compound 72] |
| 0.148 | 1.83 | CC(=O)Nc1cccc(Oc2cc(C(=O)/N=c3\[nH]c4ccc(CN5CCN(C)CC5)cc4n3CC(C)(C)O)ccn2)c1C=O [Compound 98] |
| > 1 | > 10 | COc1cc(N2CCC(N3CCN(C)CC3)CC2)ccc1Nc1ncc(-c2ccc(C=O)c(O)c2)c(Nc2ccccc2)n1 [Compound 4] |
| 0.721 | 5.78 | CC(=O)Nc1cccc(-c2cnn(-c3cc(C(=O)/N=c4\[nH]c5ccc(CN6CCN(C)CC6)cc5n4CC(C)(C)O)ccn3)c2)c1C=O [Compound 95] |
| 0.00829 | 2.85 | CN1CCN(Cc2ccc3[nH]/c(=N\C(=O)c4cc(F)nc(Oc5cccc(O)c5C=O)c4)n(CC(C)(C)O)c3c2)CC1 [Compound 60] |
| 0.0115 | 4.58 | CC(C)(O)Cn1/c(=N/C(=O)c2ccnc(Oc3cccc(O)c3C=O)c2)[nH]c2ccc(N3CCC(C(C)(C)O)CC3)cc21 [Compound 70] |
| 0.0179 | > 10 | Cc1cc(Oc2cccc(O)c2C=O)cc(C(=O)/N=c2\[nH]c3ccc(CN4CCN(C)CC4)cc3n2CC(C)(C)O)c1 [Compound 61] |
